Active and inactive are the calls of the source.
How the values were obtained:
[1] = biological target: T1, Rac GTPase-activating protein 1 (Homo sapiens, UniProt Q9H0H5); experiment: MgcRacGAP GTPase-activating activity inhibitors, confirmation, biochemical, ADP Hunter fluorescence, primary and confirmatory (AID 624330); type: functional
T1 sequence (Q9H0H5 whole entry): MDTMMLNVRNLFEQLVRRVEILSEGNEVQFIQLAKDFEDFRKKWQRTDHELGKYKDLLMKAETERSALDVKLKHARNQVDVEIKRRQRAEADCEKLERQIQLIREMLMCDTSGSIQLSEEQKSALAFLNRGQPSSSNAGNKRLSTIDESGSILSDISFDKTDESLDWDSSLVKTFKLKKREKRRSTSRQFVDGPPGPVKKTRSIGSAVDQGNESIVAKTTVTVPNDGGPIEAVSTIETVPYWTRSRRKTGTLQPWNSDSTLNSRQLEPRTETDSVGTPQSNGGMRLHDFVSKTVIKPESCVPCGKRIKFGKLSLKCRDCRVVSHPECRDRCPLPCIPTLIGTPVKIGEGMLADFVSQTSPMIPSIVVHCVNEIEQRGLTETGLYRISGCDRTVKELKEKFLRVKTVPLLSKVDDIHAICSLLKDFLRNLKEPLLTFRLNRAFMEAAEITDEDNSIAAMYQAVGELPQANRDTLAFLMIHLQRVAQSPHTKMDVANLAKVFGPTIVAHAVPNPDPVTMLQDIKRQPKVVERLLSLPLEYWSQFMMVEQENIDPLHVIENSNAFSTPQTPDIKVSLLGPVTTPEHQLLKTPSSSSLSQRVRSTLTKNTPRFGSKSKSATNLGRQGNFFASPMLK

[2] = biological target: FAD-linked sulfhydryl oxidase ALR (Homo sapiens, UniProt P55789); experiment: inhibitors of human ALR sulfhydryl oxidase, dose response, biochemical, H2O2 detection, luminescence, cherry-pick (AID 493248)
Chain of FAD-linked sulfhydryl oxidase ALR (P55789 whole entry): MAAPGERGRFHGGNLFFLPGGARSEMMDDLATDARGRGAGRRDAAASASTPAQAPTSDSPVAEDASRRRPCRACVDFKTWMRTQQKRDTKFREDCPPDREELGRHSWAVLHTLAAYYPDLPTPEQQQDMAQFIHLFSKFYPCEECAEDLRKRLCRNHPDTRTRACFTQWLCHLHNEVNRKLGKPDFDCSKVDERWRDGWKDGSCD

[3] = Luminescence Cell-Based Dose Retest to Confirm Inhibitors of Cancer Stem Cells. [Related pubchem assays (depositor defined):AID2717, AID2721]; type: functional; details: Homo sapiens
Cytochrome P450 2C9 = Cytochrome P450 2C9 (Homo sapiens, UniProt P11712)
Chain of Cytochrome P450 2C9 (P11712 whole entry): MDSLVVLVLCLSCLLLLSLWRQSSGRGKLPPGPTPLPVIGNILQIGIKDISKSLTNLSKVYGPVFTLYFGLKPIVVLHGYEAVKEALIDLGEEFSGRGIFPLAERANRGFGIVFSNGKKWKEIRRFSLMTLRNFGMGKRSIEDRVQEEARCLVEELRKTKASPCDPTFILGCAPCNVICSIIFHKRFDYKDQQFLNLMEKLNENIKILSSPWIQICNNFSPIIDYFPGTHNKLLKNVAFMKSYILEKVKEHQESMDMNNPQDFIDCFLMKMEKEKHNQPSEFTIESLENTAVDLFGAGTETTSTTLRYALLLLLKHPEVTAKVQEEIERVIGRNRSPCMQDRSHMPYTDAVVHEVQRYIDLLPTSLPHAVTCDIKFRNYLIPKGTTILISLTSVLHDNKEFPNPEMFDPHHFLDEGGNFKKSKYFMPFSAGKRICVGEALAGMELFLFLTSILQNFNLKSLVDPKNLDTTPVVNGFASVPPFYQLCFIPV

Protein RecA = biological target: T2, Protein RecA (Mycobacterium tuberculosis, UniProt P9WHJ3); experiment: Fluorescence Cell-Free Homogeneous Dose Retest to Identify Inhibitors of RecA-Intein Splicing Activity. [Related pubchem assays (depositor defined):AID2097, AID2223, AID489010, AID492950]; type: functional
T2 sequence (P9WHJ3 whole entry): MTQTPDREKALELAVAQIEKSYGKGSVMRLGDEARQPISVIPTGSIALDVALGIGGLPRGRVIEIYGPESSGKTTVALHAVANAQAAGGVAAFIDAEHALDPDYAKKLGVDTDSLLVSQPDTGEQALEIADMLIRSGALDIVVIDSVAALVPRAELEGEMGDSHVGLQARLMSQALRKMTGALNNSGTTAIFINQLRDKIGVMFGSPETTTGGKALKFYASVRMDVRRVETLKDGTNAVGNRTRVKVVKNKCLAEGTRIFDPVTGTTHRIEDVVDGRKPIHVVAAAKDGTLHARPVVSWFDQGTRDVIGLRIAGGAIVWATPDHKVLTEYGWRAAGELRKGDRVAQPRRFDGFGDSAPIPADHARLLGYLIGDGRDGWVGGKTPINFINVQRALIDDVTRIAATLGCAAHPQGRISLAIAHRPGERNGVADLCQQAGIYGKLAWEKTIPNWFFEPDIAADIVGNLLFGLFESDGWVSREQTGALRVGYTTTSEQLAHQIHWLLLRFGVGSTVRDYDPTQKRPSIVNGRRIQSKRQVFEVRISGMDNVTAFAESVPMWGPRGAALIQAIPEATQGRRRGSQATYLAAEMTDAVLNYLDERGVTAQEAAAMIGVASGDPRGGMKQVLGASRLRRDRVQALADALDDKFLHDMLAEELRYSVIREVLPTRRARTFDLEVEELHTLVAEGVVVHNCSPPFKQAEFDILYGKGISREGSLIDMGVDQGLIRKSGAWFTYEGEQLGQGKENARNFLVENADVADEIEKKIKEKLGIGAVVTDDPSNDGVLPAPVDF

[4] = biological target: T3, Replicative DNA helicase DnaB (Mycobacterium tuberculosis, UniProt P9WMR3); experiment: DnaB intein splicing inhibitors, dose response, biochemical, cell-free fluorescence (AID 449749); type: functional
T3 sequence (P9WMR3 whole entry): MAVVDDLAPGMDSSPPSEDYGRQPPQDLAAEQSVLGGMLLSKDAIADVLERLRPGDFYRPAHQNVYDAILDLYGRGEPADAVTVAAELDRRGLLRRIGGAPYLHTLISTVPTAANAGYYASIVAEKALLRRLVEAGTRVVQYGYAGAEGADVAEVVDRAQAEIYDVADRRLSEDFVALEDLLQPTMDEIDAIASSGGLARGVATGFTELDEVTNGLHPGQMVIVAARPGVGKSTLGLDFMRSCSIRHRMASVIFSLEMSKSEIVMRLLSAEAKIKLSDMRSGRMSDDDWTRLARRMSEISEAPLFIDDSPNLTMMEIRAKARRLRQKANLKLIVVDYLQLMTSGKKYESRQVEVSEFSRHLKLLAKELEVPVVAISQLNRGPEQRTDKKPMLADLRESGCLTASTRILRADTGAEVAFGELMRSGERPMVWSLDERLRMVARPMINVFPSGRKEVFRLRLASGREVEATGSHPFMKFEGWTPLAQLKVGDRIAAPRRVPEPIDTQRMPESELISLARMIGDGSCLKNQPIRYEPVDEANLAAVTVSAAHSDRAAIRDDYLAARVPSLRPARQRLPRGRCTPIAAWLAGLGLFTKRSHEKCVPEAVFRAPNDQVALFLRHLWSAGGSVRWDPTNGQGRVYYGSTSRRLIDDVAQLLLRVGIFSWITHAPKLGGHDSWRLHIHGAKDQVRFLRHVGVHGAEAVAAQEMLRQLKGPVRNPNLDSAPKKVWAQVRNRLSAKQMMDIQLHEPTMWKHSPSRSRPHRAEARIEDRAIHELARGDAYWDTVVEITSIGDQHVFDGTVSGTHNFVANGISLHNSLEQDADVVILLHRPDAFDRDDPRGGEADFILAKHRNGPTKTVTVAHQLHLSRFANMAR

Streptococcus = experiment: Group A Streptococcus viability loss, dose response, counter-screen for streptokinase expression inhibitor project, luminescence, BacTiterGlo (AID 1915); type: functional, organism-based;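 also: potency for reduction of bacterial viability or growth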
[5] = system: Streptococcus sp. 'group A'; experiment: growth inhibition of control SK(-) GAS strain, dose response, counter-screen for streptokinase expression inhibitor project, luminescence, kanamycin, BacTiterGlo, confirmation (AID 1900); type: functional, organism-based
Streptokinase A = biological target: T4, Streptokinase A (Streptococcus pyogenes serotype M1, UniProt P10520); experiment: S. pyogenes streptokinase expression inhibitors, potency, dose response, plasminogen activation absorbance, OD405 (AID 1914); type: functional, Streptococcus pyogenes M1 GAS;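 also: secreted streptokinase activity via plasminogen activation per viability signal from cell pellet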
T4 sequence (P10520 whole entry): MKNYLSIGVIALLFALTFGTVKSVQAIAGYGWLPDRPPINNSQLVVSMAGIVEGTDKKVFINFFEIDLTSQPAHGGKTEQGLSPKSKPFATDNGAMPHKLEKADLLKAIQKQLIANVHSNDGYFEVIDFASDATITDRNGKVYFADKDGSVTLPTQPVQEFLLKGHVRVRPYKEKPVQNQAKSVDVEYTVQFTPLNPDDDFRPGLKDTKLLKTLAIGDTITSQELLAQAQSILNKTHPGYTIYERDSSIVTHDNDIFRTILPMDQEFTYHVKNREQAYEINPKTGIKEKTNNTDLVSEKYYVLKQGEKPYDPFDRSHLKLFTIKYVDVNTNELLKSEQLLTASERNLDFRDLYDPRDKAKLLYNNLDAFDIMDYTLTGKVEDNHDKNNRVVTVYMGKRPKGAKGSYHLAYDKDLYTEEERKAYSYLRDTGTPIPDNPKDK

[6] = microbe, parasite or virus in culture; type: functional; details: Mycobacterium tuberculosis
[7] = NIH-3T3 fibroblast cytotoxicity, dose response, cytotoxicity control, cell-based, fluorescence, Alamar Blue, secondary assay (AID 2327); type: functional;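 also: NIH-3T3 mouse fibroblasts cultured with fluconazole at 8 µg/mL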
[8] = C. albicans growth with fluconazole, confirmation, fluorescence, retest (AID 2467); type: functional, cell-based
INS1 = experiment: beta cell apoptosis inhibitors, cytokine rescue, dose response, luminescence, retest (AID 449756); type: functional, cell-based; details: Rattus norvegicus;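 also: cell death triggered by IL-1 beta plus TNF-alpha plus IFN-gamma mixture; protective hits raise ATP signal compared with cytokine alone wells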
Paired box protein Pax-8 = Paired box protein Pax-8 (Homo sapiens, UniProt Q06710); experiment: inhibitors of PAX8-driven TPO luciferase reporter, dose response, RMG-I cells, cherry-pick (AID 687027); type: functional, cell-based;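 also: luciferase reporter driven by Pax8 target thyroperoxidase promoter measured by SteadyGlo luminescence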
Chain of Paired box protein Pax-8 (Q06710 whole entry): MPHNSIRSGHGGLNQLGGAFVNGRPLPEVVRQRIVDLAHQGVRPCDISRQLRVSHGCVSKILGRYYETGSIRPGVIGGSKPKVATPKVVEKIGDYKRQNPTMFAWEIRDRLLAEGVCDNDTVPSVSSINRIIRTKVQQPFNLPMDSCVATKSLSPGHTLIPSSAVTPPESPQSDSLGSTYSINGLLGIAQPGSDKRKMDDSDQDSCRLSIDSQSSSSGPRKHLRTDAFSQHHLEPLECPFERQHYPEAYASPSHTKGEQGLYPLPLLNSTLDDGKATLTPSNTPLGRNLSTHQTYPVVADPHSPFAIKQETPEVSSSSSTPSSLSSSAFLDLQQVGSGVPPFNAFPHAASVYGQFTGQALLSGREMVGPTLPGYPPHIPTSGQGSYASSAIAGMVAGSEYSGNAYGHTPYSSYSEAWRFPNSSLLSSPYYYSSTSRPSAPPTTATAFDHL

COc1cc(/C=C/C(=O)OCC(=O)Nc2cc(S(=O)(=O)N3CCCCC3)ccc2C)ccc1O
IC50 [1]: 68.1 µM (active)

c1ccc(NNC2=NCCCCC2)cc1
AC50 [2]: 0.596 µM (active)
AC50 [3]: 0.898 µM (active)

Nc1c(-c2ccccc2)cnn1-c1cccc([N+](=O)[O-])c1
AC50 [2]: 0.125 µM (active)
AC50 (Cytochrome P450 2C9): 28.2 µM (inconclusive)

COc1ccc(/C=C2/C(=O)N(Cc3ccccc3)N=C2C)cc1
EC50 (Protein RecA): 1.91 µM (active)
AC50 [4]: 4.12 µM (active)

Cc1ccc(CN=C(S)Nc2ccc(NS(=O)(=O)c3ccc(C)cc3)cc2)cc1
EC50 (Streptococcus): 17.6 µM (active)
EC50 [5]: 9.78 µM (active)
EC50 (Streptokinase A): > 150 µM (not active)

O=C(NC(=S)N1CCN(c2ccc(F)cc2)CC1)C12CC3CC(CC(C3)C1)C2
EC50 (Streptococcus): > 150 µM (not active)
EC50 [5]: 29.7 µM (active)
EC50 (Streptokinase A): > 150 µM (not active)

CCc1ccc2nc(N3C(=O)C(O)=C(C(=O)c4ccco4)C3c3cccs3)sc2c1 (centres undefined)
EC50 (Streptococcus): 7.12 µM (active)
EC50 [5]: 2.2 µM (active)
EC50 (Streptokinase A): > 150 µM (not active)
CC50 [6]: > 40 µM (active)

Cc1ccc(Oc2ccc3c(c2)C(=O)N(c2ccc(S(=O)(=O)Nc4nccs4)cc2)C3=O)cc1
EC50 (Streptococcus): 20 µM (active)
EC50 [5]: 9.43 µM (active)
EC50 (Streptokinase A): > 150 µM (not active)

CC(NS(=O)(=O)/C=C/c1ccccc1)C(=O)O (centres undefined)
EC50 (Streptococcus): > 150 µM (not active)
EC50 [5]: > 150 µM (not active)
EC50 (Streptokinase A): > 150 µM (not active)

CCn1c(CN2CCCCCC2=O)nnc1SCc1cnc(-c2ccccc2)s1
EC50 [7]: 68 µM (inconclusive)
EC50 [8]: 1.47 µM (active)

Cc1ccc(C2=NN=C(NC(=O)CSc3nncn3C)SC2)cc1
IC50 [1]: 256 µM (active)

O=C(CN1CCN(Cc2ccccc2)CC1)NC(c1ccccc1)c1ccccc1
IC50 [1]: 77.1 µM (active)

Brc1ccc(OCCCN2CCOCC2)cc1
IC50 [1]: 123 µM (active)

O=C(CNS(=O)(=O)c1ccc(Br)s1)NCC1COc2ccccc2O1 (centres undefined)
EC50 [7]: > 150 µM (inactive)
EC50 [8]: > 38 µM (not active)

CCCCn1c(=O)c(C(=O)NCc2ccccc2Cl)c(O)c2ccccc21
EC50 (Streptococcus): > 150 µM (not active)
EC50 [5]: 54.8 µM (active)
EC50 (Streptokinase A): 5.97 µM (inconclusive)

COc1ccc(CN2CCN(CCSc3ccc(C)cc3)CC2)c(OC)c1OC
AC50 (INS1): > 260 µM (inactive)
IC50 [1]: 80 µM (active)

COc1ccc(C2c3ccc(O)cc3Oc3ncn4nc(-c5ccncc5)nc4c32)cc1OC (centres undefined)
EC50 (Streptococcus): 27.9 µM (active)
EC50 [5]: 4.67 µM (active)
EC50 (Streptokinase A): > 150 µM (not active)

COc1ccc(/C=C/C(=O)N(c2ccccn2)C2CCCCC2)cc1OC
EC50 [7]: > 150 µM (inactive)
EC50 [8]: > 38 µM (not active)

COc1ccc(C(=O)Nc2ccccc2C(=O)Nc2ccccc2C(=O)O)cc1
EC50 [7]: > 160 µM (inactive)
EC50 [8]: 3.49 µM (active)

CC(=O)c1c(C)nc(-c2cccc([N+](=O)[O-])c2)n1O
EC50 [7]: 69.2 µM (active)
EC50 [8]: 4.84 µM (active)

CS(=O)(=O)Nc1ccc(C(=O)Nc2ccccc2C(=O)NCc2ccco2)cc1
EC50 (Streptococcus): > 150 µM (not active)
EC50 [5]: > 150 µM (not active)
EC50 (Streptokinase A): > 150 µM (not active)

C[C@H]([C@@H](N)C(=O)N[C@@H](C(=O)O)[C@@H]1O[C@H](n2ccc(=O)[nH]c2=O)[C@@H](O)[C@H]1O)[C@@H](O)c1ccc(O)cn1
EC50 [7]: > 150 µM (inactive)
EC50 [8]: 3.67 µM (active)

CCN=C(S)Nc1cc2oc3ccccc3c2cc1OC
IC50 [1]: 99.9 µM (active)

O=C(COC(=O)c1ccco1)Nc1cccc(S(=O)(=O)N2CCOCC2)c1
AC50 (Paired box protein Pax-8): 62.1 µM (active)

C[C@@H]1CN([C@@H](C)CO)C(=O)c2cc(NC(=O)Nc3ccc4c(c3)OCO4)ccc2O[C@@H]1CN(C)C(=O)Nc1ccc(C(F)(F)F)cc1
AC50 (Paired box protein Pax-8): 11.1 µM (active)

COc1ccccc1/N=C1\C(Cl)=C(O)OC1OC(=O)c1ccco1 (centres undefined)
EC50 (Protein RecA): 13.4 µM (active)
AC50 [4]: 12.5 µM (active)
